In ChEMBL document CHEMBL3400056, “Novel thiazolo[3,2-b]-1,2,4-triazoles derived from naproxen with analgesic/anti-inflammatory properties: Synthesis, biological evaluation and molecular modeling studies” (Bioorg Med Chem, 2015):

How the values were obtained:
Mus musculus [1] = test: Analgesic activity in Swiss albino mouse assessed as latancy of withdrawing tail at 100 mg/kg, po measured after 2 hrs by tail flick test relative to control; format: functional
Mus musculus [2] = test: Acute toxicity in Swiss albino mouse assessed as behavioral changes at 50 to 100 mg/kg, po measured up to 14 days; format: organism-based; set-up: dose 50-100 mg/kg, route oral; conditions: in vivo, 336 h
Mus musculus [3] = test: Antiinflammatory activity in Swiss albino mouse assessed as inhibition of carrageenan-induced paw edema at 50 mg/kg, po administered 1 hr prior to carrageenan challenge measured after 2 hrs relative to control; format: functional; set-up: scale not given: the % may be the effect or the level left
[4] = target: T1, Prostaglandin G/H synthase 2 (Homo sapiens, UniProt P35354); test: Inhibition of human recombinant COX-2 using […] as substrate incubated for 10 mins prior to arachidonic acid addition measured after 2 mins by EIA
T1 sequence (P35354 whole entry): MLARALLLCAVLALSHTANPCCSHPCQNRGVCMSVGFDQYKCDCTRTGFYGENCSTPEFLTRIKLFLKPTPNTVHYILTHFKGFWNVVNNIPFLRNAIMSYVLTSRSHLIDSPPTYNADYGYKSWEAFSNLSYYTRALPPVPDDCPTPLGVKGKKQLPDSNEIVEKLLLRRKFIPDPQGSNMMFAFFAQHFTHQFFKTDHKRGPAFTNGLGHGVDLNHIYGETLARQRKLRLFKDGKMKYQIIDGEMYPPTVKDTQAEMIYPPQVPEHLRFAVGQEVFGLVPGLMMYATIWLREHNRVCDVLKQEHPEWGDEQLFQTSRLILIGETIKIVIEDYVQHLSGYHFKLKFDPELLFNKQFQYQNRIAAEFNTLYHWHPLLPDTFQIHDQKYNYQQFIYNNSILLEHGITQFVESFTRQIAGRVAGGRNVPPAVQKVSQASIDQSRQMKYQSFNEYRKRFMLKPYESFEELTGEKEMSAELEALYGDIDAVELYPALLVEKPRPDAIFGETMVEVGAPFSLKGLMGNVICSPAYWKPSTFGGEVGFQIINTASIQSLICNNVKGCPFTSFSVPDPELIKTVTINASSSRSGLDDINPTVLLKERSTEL

Mus musculus [5] = test: Acute toxicity in Swiss albino mouse assessed as mortality at 50 to 100 mg/kg, po measured after 6 hrs to 14 days; format: organism-based; set-up: dose 50-100 mg/kg, route oral; conditions: in vivo
Mus musculus [6] = test: Acute toxicity in Swiss albino mouse assessed as weight loss at 50 to 100 mg/kg, po measured up to 14 days; format: organism-based; set-up: dose 50-100 mg/kg, route oral; conditions: in vivo, 336 h
Mus musculus [7] = test: Analgesic activity in Swiss albino mouse assessed as time of licking paws at 50 mg/kg, po measured after 2 hrs by tail flick test relative to control; format: functional
Mus musculus [8] = test: Analgesic activity in Swiss albino mouse assessed as time of licking paws at 100 mg/kg, po measured after 2 hrs by tail flick test relative to control; format: functional
Mus musculus [9] = test: Gastrointestinal toxicity in Swiss albino mouse assessed as ulcer index at 100 mg/kg, po measured after 2 hrs; format: organism-based; set-up: dose 100 mg/kg, route oral; conditions: in vivo
[10] = Selectivity ratio of IC50 for ovine recombinant COX-1 to IC50 for human recombinant COX-2
Mus musculus [11] = test: Analgesic activity in Swiss albino mouse assessed as latancy of withdrawing tail at 50 mg/kg, po measured after 2 hrs by tail flick test relative to control; format: functional
[12] = target: T2, Prostaglandin G/H synthase 1 (Ovis aries, UniProt P05979); test: Inhibition of ovine recombinant COX-1 using […] as substrate incubated for 10 mins prior to arachidonic acid addition measured after 2 mins by EIA
T2 sequence (P05979 whole entry): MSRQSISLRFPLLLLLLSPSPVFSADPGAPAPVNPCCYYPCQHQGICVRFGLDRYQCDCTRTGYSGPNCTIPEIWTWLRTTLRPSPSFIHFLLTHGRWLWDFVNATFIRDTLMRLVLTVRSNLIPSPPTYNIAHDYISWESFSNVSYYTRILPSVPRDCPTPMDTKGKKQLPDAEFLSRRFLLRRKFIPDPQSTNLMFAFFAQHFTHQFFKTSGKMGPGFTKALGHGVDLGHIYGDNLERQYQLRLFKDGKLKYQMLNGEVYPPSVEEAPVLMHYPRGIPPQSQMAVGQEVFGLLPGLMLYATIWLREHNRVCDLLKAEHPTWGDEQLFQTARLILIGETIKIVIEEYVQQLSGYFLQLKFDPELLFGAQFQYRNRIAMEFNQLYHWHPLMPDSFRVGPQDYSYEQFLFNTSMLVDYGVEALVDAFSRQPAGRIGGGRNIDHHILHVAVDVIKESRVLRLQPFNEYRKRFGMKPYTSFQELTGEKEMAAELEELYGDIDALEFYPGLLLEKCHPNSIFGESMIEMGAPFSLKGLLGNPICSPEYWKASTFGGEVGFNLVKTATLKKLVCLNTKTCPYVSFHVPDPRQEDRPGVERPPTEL

Mus musculus [13] = test: Antiinflammatory activity in Swiss albino mouse assessed as inhibition of carrageenan-induced paw edema at 100 mg/kg, po administered 1 hr prior to carrageenan challenge measured after 2 hrs relative to control; format: functional; set-up: scale not given: the % may be the effect or the level left
Mus musculus [14] = test: Gastrointestinal toxicity in Swiss albino mouse assessed as ulcer index at 50 mg/kg, po measured after 2 hrs; format: organism-based; set-up: dose 50 mg/kg, route oral; conditions: in vivo
[15] = Acute toxicity in Swiss albino mouse assessed as mortality at 50 mg/kg, po after 12 hrs; format: organism-based; set-up: dose 50 mg/kg, route oral; conditions: in vivo

## COc1ccc2cc(C(C)c3nc4s/c(=C\c5ccc(C(C)C)cc5)c(=O)n4n3)ccc2c1 (configuration not stated)
Mus musculus [1]
  MPE: 17.9%
Mus musculus [2]
  Activity: Non-toxic
Mus musculus [3]
  Activity: 29.3%
[4]
  IC50: > 100 µM
Mus musculus [5]
  Activity: Non-toxic
Mus musculus [6]
  Activity: Non-toxic
Mus musculus [7]
  MPE: 27.6%
Mus musculus [8]
  MPE: 22%
Mus musculus [9]
  UI: 2.4
[10]
  Ratio IC50: < 0.796
Mus musculus [11]
  MPE: 36.9%
[12]
  IC50: 79.6 µM
Mus musculus [13]
  Activity: 43.3%
Mus musculus [14]
  UI: 2.6

## COc1ccc2cc(C(C)c3nc4s/c(=C\c5ccc(C)s5)c(=O)n4n3)ccc2c1 (configuration not stated)
Mus musculus [1]
  MPE: 43.5%
Mus musculus [2]
  Activity: Non-toxic
Mus musculus [3]
  Activity: 36.7%
[4]
  IC50: 20.5 µM
Mus musculus [5]
  Activity: Non-toxic
Mus musculus [6]
  Activity: Non-toxic
Mus musculus [7]
  MPE: 34.9%
Mus musculus [8]
  MPE: 36%
Mus musculus [9]
  UI: 2.3
[10]
  Ratio IC50: > 4.87
Mus musculus [11]
  MPE: 32.8%
[12]
  IC50: > 100 µM
Mus musculus [13]
  Activity: 31.1%
Mus musculus [14]
  UI: 1.8

## COc1ccc2c(c1)c(CC(=O)O)c(C)n2C(=O)c1ccc(Cl)cc1 [INDOMETHACIN]
Mus musculus [1]
  MPE: 46.2%
Mus musculus [3]
  Activity: 46.8%
Mus musculus [7]
  MPE: 35.2%
Mus musculus [8]
  MPE: 40.5%
Mus musculus [9]
  UI: 5.1
Mus musculus [11]
  MPE: 46.9%
Mus musculus [13]
  Activity: 50.9%
[15]
  mortality at 12 h: 71%
Mus musculus [14]
  UI: 4

## COc1ccc2cc(C(C)c3nc4s/c(=C\c5cccc6ccccc56)c(=O)n4n3)ccc2c1 (configuration not stated)
Mus musculus [1]
  MPE: 53.8%
Mus musculus [2]
  Activity: Non-toxic
Mus musculus [3]
  Activity: 43%
[4]
  IC50: 68.2 µM
Mus musculus [5]
  Activity: Non-toxic
Mus musculus [6]
  Activity: Non-toxic
Mus musculus [7]
  MPE: 39.7%
Mus musculus [8]
  MPE: 36.8%
Mus musculus [9]
  UI: 2.2
[10]
  Ratio IC50: 1.25
Mus musculus [11]
  MPE: 51.9%
[12]
  IC50: 85.6 µM
Mus musculus [13]
  Activity: 39.6%
Mus musculus [14]
  UI: 2.6

## COc1ccc2cc(C(C)c3nc4s/c(=C\c5ccc(Br)s5)c(=O)n4n3)ccc2c1 (configuration not stated)
Mus musculus [1]
  MPE: 41.1%
Mus musculus [2]
  Activity: Non-toxic
Mus musculus [3]
  Activity: 51.4%
[4]
  IC50: 17.3 µM
Mus musculus [5]
  Activity: Non-toxic
Mus musculus [6]
  Activity: Non-toxic
Mus musculus [7]
  MPE: 29%
Mus musculus [8]
  MPE: 24.4%
Mus musculus [9]
  UI: 2.6
[10]
  Ratio IC50: 2.3
Mus musculus [11]
  MPE: 38%
[12]
  IC50: 39.8 µM
Mus musculus [13]
  Activity: 51.2%
Mus musculus [14]
  UI: 1.8

## COc1ccc2cc(C(C)c3nc4s/c(=C\C(C)=C\c5ccccc5)c(=O)n4n3)ccc2c1 (configuration not stated)
Mus musculus [1]
  MPE: 41.1%
Mus musculus [2]
  Activity: Non-toxic
Mus musculus [3]
  Activity: 35.4%
[4]
  IC50: 24.6 µM
Mus musculus [5]
  Activity: Non-toxic
Mus musculus [6]
  Activity: Non-toxic
Mus musculus [7]
  MPE: 28.7%
Mus musculus [8]
  MPE: 25.9%
Mus musculus [9]
  UI: 2.3
[10]
  Ratio IC50: 2.63
Mus musculus [11]
  MPE: 45.3%
[12]
  IC50: 64.7 µM
Mus musculus [13]
  Activity: 30.7%
Mus musculus [14]
  UI: 2

## COc1ccc2cc(C(C)c3nc4s/c(=C\c5ccc(-c6ccccc6)cc5)c(=O)n4n3)ccc2c1 (configuration not stated)
Mus musculus [1]
  MPE: 49.1%
Mus musculus [2]
  Activity: Non-toxic
Mus musculus [3]
  Activity: 45.3%
[4]
  IC50: > 100 µM
Mus musculus [5]
  Activity: Non-toxic
Mus musculus [6]
  Activity: Non-toxic
Mus musculus [7]
  MPE: 42.1%
Mus musculus [8]
  MPE: 39.8%
Mus musculus [9]
  UI: 2.6
Mus musculus [11]
  MPE: 47.1%
[12]
  IC50: > 100 µM
Mus musculus [13]
  Activity: 40.9%
Mus musculus [14]
  UI: 1.3
